In US20230085307A1, “PYRIDAZINONE COMPOUND AND HERBICIDE” (NISSAN CHEMICAL CORPORATION, priority 2019, published 2023):

Experiments:
late watergrass = test: Test Example 1: herbicidal activity, application before weed generation under submerged conditions (Table 16, symbol A); assay type: in vivo, late watergrass (Echinochloa oryzicola)
Method in brief: (§1)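 Submerged Wagner pots (alluvial soil, 4 cm water) sown with weed seeds and planted with 2.5-leaf rice seedlings; emulsifiable concentrate diluted in water applied to water surface on sowing day. Held in greenhouse at 25-30 °C; injury scored 0-5 by herbicidal rate after three weeks.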

Japanese bulrush = test: Test Example 1: herbicidal activity, application before weed generation under submerged conditions (Table 16, symbol B); assay type: in vivo, Japanese bulrush (Schoenoplectus juncoides)
Method in brief: as §1

oval-leafed pondweed = test: Test Example 1: herbicidal activity, application before weed generation under submerged conditions (Table 16, symbol C); assay type: in vivo, oval-leafed pondweed (Monochoria vaginalis)
Method in brief: as §1

barnyard grass [1] = test: Test Example 3: herbicidal effect by foliage application, Wagner pot (Table 18, symbol H); assay type: in vivo, barnyard grass (Echinochloa crus-galli); settings: 320 g/ha
Method in brief: (§2)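 Plants were sown in alluvial soil held under 0.1–0.5 cm standing water and grown 14 days in a greenhouse at 25–30 °C. An emulsifiable formulation, water-diluted to the set dose, was then sprayed onto the foliage, and effects were scored three weeks later using previously defined criteria.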

Chinese sprangletop = test: Test Example 3: herbicidal effect by foliage application, Wagner pot (Table 18, symbol D); assay type: in vivo, chinese sprangletop (Leptochloa chinensis); settings: 320 g/ha
Method in brief: as §2

rice flat sedge = test: Test Example 3: herbicidal effect by foliage application, Wagner pot (Table 18, symbol E); assay type: in vivo, rice flat sedge (Cyperus iria); settings: 320 g/ha
Method in brief: as §2

southern crabgrass [2] = test: Test Example 4: herbicidal effect by soil treatment (Table 19, symbol F); assay type: in vivo, southern crabgrass (Digitaria ciliaris)
Method in brief: (§3)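 Three weeks of greenhouse growth at 25° C. to 30° C. followed a uniform surface spray of water-diluted emulsion at a predetermined herbicide amount. Seeds had been sown beforehand under about 1.5 cm of sterilized diluvial soil. Grading followed criteria set out in an earlier test.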

green foxtail [3] = test: Test Example 4: herbicidal effect by soil treatment (Table 19, symbol G); assay type: in vivo, green foxtail (Setaria viridis)
Method in brief: as §3

barnyard grass [4] = test: Test Example 4: herbicidal effect by soil treatment (Table 19, symbol H); assay type: in vivo, barnyard grass (Echinochloa crus-galli)
Method in brief: as §3

wild oat [5] = test: Test Example 4: herbicidal effect by soil treatment (Table 19, symbol I); assay type: in vivo, wild oat (Avena fatua)
Method in brief: as §3

blackgrass [6] = test: Test Example 4: herbicidal effect by soil treatment (Table 19, symbol J); assay type: in vivo, blackgrass (Alopecurus myosuroides)
Method in brief: as §3

Italian ryegrass [7] = test: Test Example 4: herbicidal effect by soil treatment (Table 19, symbol K); assay type: in vivo, Italian ryegrass (Lolium multiflorum)
Method in brief: as §3

windgrass [8] = test: Test Example 4: herbicidal effect by soil treatment (Table 19, symbol L); assay type: in vivo, windgrass (Apera spica-venti)
Method in brief: as §3

velvetleaf [9] = test: Test Example 4: herbicidal effect by soil treatment (Table 19, symbol M); assay type: in vivo, velvetleaf (Abutilon theophrasti)
Method in brief: as §3

redroot pigweed = test: Test Example 4: herbicidal effect by soil treatment (Table 19, symbol N); assay type: in vivo, redroot pigweed (Amaranthus retroflexus)
Method in brief: as §3

lambsquarters [10] = test: Test Example 4: herbicidal effect by soil treatment (Table 19, symbol O); assay type: in vivo, lambsquarters (Chenopodium album)
Method in brief: as §3

chickweed = test: Test Example 4: herbicidal effect by soil treatment (Table 19, symbol P); assay type: in vivo, common chickweed (Stellaria media)
Method in brief: as §3

persian speedwell [11] = test: Test Example 4: herbicidal effect by soil treatment (Table 19, symbol R); assay type: in vivo, Persian speedwell (Veronica persica)
Method in brief: as §3

southern crabgrass [12] = test: Test Example 5: herbicidal effect by foliage application, plastic box (Table 20, symbol F); assay type: in vivo, southern crabgrass (Digitaria ciliaris); settings: foliage application, 320 g/ha
Method in brief: (§4)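 Plants sown in sterilized diluvial soil and grown 14 days in a greenhouse at 25° C to 30° C, then sprayed on the foliage with the compound's emulsion diluted in water to a predetermined herbicide amount. Injury to weeds and crops scored three weeks after application on a visual rating scale.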

green foxtail [13] = test: Test Example 5: herbicidal effect by foliage application, plastic box (Table 20, symbol G); assay type: in vivo, green foxtail (Setaria viridis); settings: foliage application, 320 g/ha
Method in brief: as §4

barnyard grass [14] = test: Test Example 5: herbicidal effect by foliage application, plastic box (Table 20, symbol H); assay type: in vivo, barnyard grass (Echinochloa crus-galli); settings: foliage application, 320 g/ha
Method in brief: as §4

wild oat [15] = test: Test Example 5: herbicidal effect by foliage application, plastic box (Table 20, symbol I); assay type: in vivo, wild oat (Avena fatua); settings: foliage application, 320 g/ha
Method in brief: as §4

blackgrass [16] = test: Test Example 5: herbicidal effect by foliage application, plastic box (Table 20, symbol J); assay type: in vivo, blackgrass (Alopecurus myosuroides); settings: foliage application, 320 g/ha
Method in brief: as §4

Italian ryegrass [17] = test: Test Example 5: herbicidal effect by foliage application, plastic box (Table 20, symbol K); assay type: in vivo, Italian ryegrass (Lolium multiflorum); settings: foliage application, 320 g/ha
Method in brief: as §4

windgrass [18] = test: Test Example 5: herbicidal effect by foliage application, plastic box (Table 20, symbol L); assay type: in vivo, windgrass (Apera spica-venti); settings: foliage application, 320 g/ha, 3 weeks after application
Method in brief: as §4

velvetleaf [19] = test: Test Example 5: herbicidal effect by foliage application, plastic box (Table 20, symbol M); assay type: in vivo, velvetleaf (Abutilon theophrasti); settings: foliage application, 320 g/ha
Method in brief: as §4

lambsquarters [20] = test: Test Example 5: herbicidal effect by foliage application, plastic box (Table 20, symbol O); assay type: in vivo, lambsquarters (Chenopodium album); settings: foliage application, 320 g/ha
Method in brief: as §4

persian speedwell [21] = test: Test Example 5: herbicidal effect by foliage application, plastic box (Table 20, symbol R); assay type: in vivo, Persian speedwell (Veronica persica); settings: foliage application, 320 g/ha
Method in brief: as §4

[22] = amount of applied herbicide 320 g/ha

Cc1nn(C)c(=O)c(-c2c(-c3ccc(OC(C)C#N)cc3)sc3ccccc23)c1O (racemic) [1-236]
Herbicidal effect on A: late watergrass (grade 0-5) (late watergrass; 320 g/ha applied herbicide): 3 (Herbicidal rate of 40% or more and less than 70%)
Herbicidal effect on B: Japanese bulrush (grade 0-5) (Japanese bulrush; 320 g/ha applied herbicide): 0 (Herbicidal rate of 5% or less (almost no effect))
Herbicidal effect on C: oval-leafed pondweed (grade 0-5) (oval-leafed pondweed; 320 g/ha applied herbicide): 0 (Herbicidal rate of 5% or less (almost no effect))
herbicidal effect on H (barnyard grass), rating 0-5 (barnyard grass [1]): 5 (Herbicidal rate of 90% or more (almost completely withered))
herbicidal effect on D (Chinese sprangletop), rating 0-5 (Chinese sprangletop): 5 (Herbicidal rate of 90% or more (almost completely withered))
herbicidal effect on E (rice flat sedge), rating 0-5 (rice flat sedge): 5 (Herbicidal rate of 90% or more (almost completely withered))
F: southern crabgrass, herbicidal effect rating (southern crabgrass [2]; AAH 320 g/ha): 4 (Herbicidal rate of 70% or more and less than 90%)
G: green foxtail, herbicidal effect rating (green foxtail [3]; AAH 320 g/ha): 4 (Herbicidal rate of 70% or more and less than 90%)
H: barnyard grass, herbicidal effect rating (barnyard grass [4]; AAH 320 g/ha): 5 (Herbicidal rate of 90% or more (almost completely withered))
I: wild oat, herbicidal effect rating (wild oat [5]; AAH 320 g/ha): 0 (Herbicidal rate of 5% or less (almost no effect))
J: blackgrass, herbicidal effect rating (blackgrass [6]; AAH 320 g/ha): 0 (Herbicidal rate of 5% or less (almost no effect))
K: Italian ryegrass, herbicidal effect rating (Italian ryegrass [7]; AAH 320 g/ha): 3 (Herbicidal rate of 40% or more and less than 70%)
L: windgrass, herbicidal effect rating (windgrass [8]; AAH 320 g/ha): 0 (Herbicidal rate of 5% or less (almost no effect))
M: velvetleaf, herbicidal effect rating (velvetleaf [9]; AAH 320 g/ha): 1 (Herbicidal rate of 5% or more and less than 20%)
N: redroot pigweed, herbicidal effect rating (redroot pigweed; AAH 320 g/ha): 5 (Herbicidal rate of 90% or more (almost completely withered))
O: lambsquarters, herbicidal effect rating (lambsquarters [10]; AAH 320 g/ha): 4 (Herbicidal rate of 70% or more and less than 90%)
P: chickweed, herbicidal effect rating (chickweed; AAH 320 g/ha): 4 (Herbicidal rate of 70% or more and less than 90%)
R: persian speedwell, herbicidal effect rating (persian speedwell [11]; AAH 320 g/ha): 4 (Herbicidal rate of 70% or more and less than 90%)
effect on southern crabgrass (F) (southern crabgrass [12]; 3 weeks after application): 4 (Herbicidal rate of 70% or more and less than 90%)
effect on green foxtail (G) (green foxtail [13]; 3 weeks after application): 4 (Herbicidal rate of 70% or more and less than 90%)
effect on barnyard grass (H) (barnyard grass [14]; 3 weeks after application): 5 (Herbicidal rate of 90% or more (almost completely withered))
effect on wild oat (I) (wild oat [15]; 3 weeks after application): 5 (Herbicidal rate of 90% or more (almost completely withered))
effect on blackgrass (J) (blackgrass [16]; 3 weeks after application): 4 (Herbicidal rate of 70% or more and less than 90%)
effect on Italian ryegrass (K) (Italian ryegrass [17]; 3 weeks after application): 5 (Herbicidal rate of 90% or more (almost completely withered))
effect on windgrass (L) (windgrass [18]): 0 (Herbicidal rate of 5% or less (almost no effect))
effect on velvetleaf (M) (velvetleaf [19]; 3 weeks after application): 5 (Herbicidal rate of 90% or more (almost completely withered))
effect on lambsquarters (O) (lambsquarters [20]; 3 weeks after application): 5 (Herbicidal rate of 90% or more (almost completely withered))
effect on persian speedwell (R) (persian speedwell [21]; 3 weeks after application): 5 (Herbicidal rate of 90% or more (almost completely withered))

CCOc1cc(F)ccc1-c1sc2cc(OC)c(Cl)cc2c1-c1c(O)c(C)nn(C)c1=O [5-077]
Herbicidal effect, A: late watergrass (late watergrass; [22]): 2 (Herbicidal rate of 20% or more and less than 40%)
Herbicidal effect, B: Japanese bulrush (Japanese bulrush; [22]): 0 (Herbicidal rate of 5% or less (almost no effect))
Herbicidal effect, C: oval-leafed pondweed (oval-leafed pondweed; [22]): 4 (Herbicidal rate of 70% or more and less than 90%)
herbicidal effect on barnyard grass (H) (barnyard grass [1]): 5 (Herbicidal rate of 90% or more (almost completely withered))
herbicidal effect on Chinese sprangletop (D) (Chinese sprangletop): 2 (Herbicidal rate of 20% or more and less than 40%)
herbicidal effect on rice flat sedge (E) (rice flat sedge): 4 (Herbicidal rate of 70% or more and less than 90%)
F: southern crabgrass, herbicidal effect grade (southern crabgrass [2]; [22]): 2 (Herbicidal rate of 20% or more and less than 40%)
G: green foxtail, herbicidal effect grade (green foxtail [3]; [22]): 0 (Herbicidal rate of 5% or less (almost no effect))
H: barnyard grass, herbicidal effect grade (barnyard grass [4]; [22]): 0 (Herbicidal rate of 5% or less (almost no effect))
I: wild oat, herbicidal effect grade (wild oat [5]; [22]): 0 (Herbicidal rate of 5% or less (almost no effect))
J: blackgrass, herbicidal effect grade (blackgrass [6]; [22]): 0 (Herbicidal rate of 5% or less (almost no effect))
K: Italian ryegrass, herbicidal effect grade (Italian ryegrass [7]; [22]): 0 (Herbicidal rate of 5% or less (almost no effect))
L: windgrass, herbicidal effect grade (windgrass [8]; [22]): 0 (Herbicidal rate of 5% or less (almost no effect))
M: velvetleaf, herbicidal effect grade (velvetleaf [9]; [22]): 0 (Herbicidal rate of 5% or less (almost no effect))
N: redroot pigweed, herbicidal effect grade (redroot pigweed; [22]): 3 (Herbicidal rate of 40% or more and less than 70%)
O: lambsquarters, herbicidal effect grade (lambsquarters [10]; [22]): 3 (Herbicidal rate of 40% or more and less than 70%)
P: chickweed, herbicidal effect grade (chickweed; [22]): 0 (Herbicidal rate of 5% or less (almost no effect))
R: persian speedwell, herbicidal effect grade (persian speedwell [11]; [22]): 0 (Herbicidal rate of 5% or less (almost no effect))
herbicidal effect on southern crabgrass (F) (southern crabgrass [12]; three weeks after application): 5 (Herbicidal rate of 90% or more (almost completely withered))
herbicidal effect on green foxtail (G) (green foxtail [13]; three weeks after application): 5 (Herbicidal rate of 90% or more (almost completely withered))
herbicidal effect on barnyard grass (H) (barnyard grass [14]; three weeks after application): 5 (Herbicidal rate of 90% or more (almost completely withered))
herbicidal effect on wild oat (I) (wild oat [15]; three weeks after application): 3 (Herbicidal rate of 40% or more and less than 70%)
herbicidal effect on blackgrass (J) (blackgrass [16]; three weeks after application): 3 (Herbicidal rate of 40% or more and less than 70%)
herbicidal effect on Italian ryegrass (K) (Italian ryegrass [17]; three weeks after application): 0 (Herbicidal rate of 5% or less (almost no effect))
herbicidal effect on velvetleaf (M) (velvetleaf [19]; three weeks after application): 3 (Herbicidal rate of 40% or more and less than 70%)
herbicidal effect on lambsquarters (O) (lambsquarters [20]; three weeks after application): 5 (Herbicidal rate of 90% or more (almost completely withered))
herbicidal effect on persian speedwell (R) (persian speedwell [21]; three weeks after application): 4 (Herbicidal rate of 70% or more and less than 90%)
